Experimental data reported in ChEMBL document CHEMBL5241057, “Outline of gelatinase inhibitors as anti-cancer agents: A patent mini-review for 2010-present” (Eur J Med Chem, 2021).
Where a SMILES comes first, the peptide text is derived from it. [ ]: non-standard residue; d: D form. The star is where a group is joined. ξ: configuration not given here. Pro(trans-4-F) = O=C(O)[C@@H]1C[C@@H](F)CN1; NMeIle(3ξ) = CCC(C)[C@H](NC)C(=O)O; Dab = NCC[C@H](N)C(=O)O; Hexanoyl = CCCCCC(=O)*; Bz = O=C(c1ccccc1)*; NHOH = ON*

Assays:
[1] = target: T1, 72 kDa type IV collagenase (Homo sapiens, UniProt P08253); experiment: Inhibition of MMP2 (unknown origin) assessed as inhibition constant
T1 sequence (P08253 whole entry): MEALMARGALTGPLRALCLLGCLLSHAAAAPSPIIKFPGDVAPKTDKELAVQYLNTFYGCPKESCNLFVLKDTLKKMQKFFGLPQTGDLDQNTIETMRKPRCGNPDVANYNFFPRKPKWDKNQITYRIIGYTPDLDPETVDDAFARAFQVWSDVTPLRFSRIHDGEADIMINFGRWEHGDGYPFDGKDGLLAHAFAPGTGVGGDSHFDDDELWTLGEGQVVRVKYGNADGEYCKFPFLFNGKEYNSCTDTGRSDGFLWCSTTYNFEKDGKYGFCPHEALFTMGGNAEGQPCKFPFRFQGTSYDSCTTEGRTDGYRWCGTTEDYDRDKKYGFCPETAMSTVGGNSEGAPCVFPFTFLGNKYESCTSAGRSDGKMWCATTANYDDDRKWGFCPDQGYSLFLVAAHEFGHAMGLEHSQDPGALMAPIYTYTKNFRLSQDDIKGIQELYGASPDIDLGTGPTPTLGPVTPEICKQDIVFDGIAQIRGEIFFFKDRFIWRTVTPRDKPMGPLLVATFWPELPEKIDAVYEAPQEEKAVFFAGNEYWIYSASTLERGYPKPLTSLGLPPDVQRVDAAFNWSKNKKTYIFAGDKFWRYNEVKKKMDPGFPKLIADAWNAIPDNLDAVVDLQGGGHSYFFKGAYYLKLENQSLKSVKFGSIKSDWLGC

[2] = target: T2, Matrix metalloproteinase-9 (Homo sapiens, UniProt P14780); experiment: Inhibition of MMP9 (unknown origin) assessed as inhibition constant
T2 sequence (P14780 whole entry): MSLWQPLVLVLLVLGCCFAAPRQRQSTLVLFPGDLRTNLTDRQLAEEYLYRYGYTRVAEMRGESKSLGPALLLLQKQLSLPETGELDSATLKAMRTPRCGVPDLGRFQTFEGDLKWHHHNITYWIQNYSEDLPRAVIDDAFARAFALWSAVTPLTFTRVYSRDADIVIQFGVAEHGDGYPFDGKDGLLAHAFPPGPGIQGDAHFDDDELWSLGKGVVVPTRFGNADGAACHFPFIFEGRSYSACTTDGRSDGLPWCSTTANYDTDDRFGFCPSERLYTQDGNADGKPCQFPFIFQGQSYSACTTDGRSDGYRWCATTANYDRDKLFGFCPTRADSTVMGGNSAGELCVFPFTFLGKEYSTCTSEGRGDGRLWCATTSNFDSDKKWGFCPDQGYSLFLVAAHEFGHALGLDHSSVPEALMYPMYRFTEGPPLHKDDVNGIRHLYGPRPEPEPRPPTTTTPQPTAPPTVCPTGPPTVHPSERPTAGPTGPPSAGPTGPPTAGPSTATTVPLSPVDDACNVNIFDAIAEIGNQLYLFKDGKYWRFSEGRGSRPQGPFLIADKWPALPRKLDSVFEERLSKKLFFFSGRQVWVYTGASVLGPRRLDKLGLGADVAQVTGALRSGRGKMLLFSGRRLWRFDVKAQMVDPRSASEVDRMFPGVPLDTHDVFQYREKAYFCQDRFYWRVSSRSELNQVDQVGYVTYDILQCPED

[3] = target: T1, 72 kDa type IV collagenase; experiment: Inhibition of MMP2 (unknown origin)
[4] = target: T2, Matrix metalloproteinase-9; experiment: Inhibition of MMP9 (unknown origin)
Matrilysin [5] = target: T3, Matrilysin (Homo sapiens, UniProt P09237); experiment: Inhibition of MMP7 (unknown origin) assessed as inhibition constant
T3 sequence (P09237 whole entry): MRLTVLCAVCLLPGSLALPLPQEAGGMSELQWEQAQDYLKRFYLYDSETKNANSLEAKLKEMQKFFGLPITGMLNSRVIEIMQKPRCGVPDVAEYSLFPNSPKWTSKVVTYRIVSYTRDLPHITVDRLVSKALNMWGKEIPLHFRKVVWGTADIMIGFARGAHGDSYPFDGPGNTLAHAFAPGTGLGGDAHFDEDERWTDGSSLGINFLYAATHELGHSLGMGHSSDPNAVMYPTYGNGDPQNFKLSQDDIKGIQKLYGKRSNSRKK

B16-BL6 [6] = experiment: Antimetastatic activity in mouse implanted with mouse B16-BL6 cells assessed as inhibition of lung metastasis at 2.5 mg/kg relative to control; format: functional; set-up: scale not given: the % may be the effect or the level left
B16-BL6 [7] = experiment: Antimetastatic activity in mouse implanted with mouse B16-BL6 cells assessed as inhibition of lung metastasis at 5 mg/kg relative to control; format: functional; set-up: scale not given: the % may be the effect or the level left
B16-BL6 [8] = experiment: Antimetastatic activity in mouse implanted with mouse B16-BL6 cells assessed as inhibition of lung metastasis at 7.5 mg/kg relative to control; format: functional; set-up: scale not given: the % may be the effect or the level left
[9] = target: Macrophage metalloelastase (Homo sapiens, UniProt P39900); experiment: Inhibition of MMP12 (unknown origin)
Sequence of Macrophage metalloelastase (P39900 whole entry): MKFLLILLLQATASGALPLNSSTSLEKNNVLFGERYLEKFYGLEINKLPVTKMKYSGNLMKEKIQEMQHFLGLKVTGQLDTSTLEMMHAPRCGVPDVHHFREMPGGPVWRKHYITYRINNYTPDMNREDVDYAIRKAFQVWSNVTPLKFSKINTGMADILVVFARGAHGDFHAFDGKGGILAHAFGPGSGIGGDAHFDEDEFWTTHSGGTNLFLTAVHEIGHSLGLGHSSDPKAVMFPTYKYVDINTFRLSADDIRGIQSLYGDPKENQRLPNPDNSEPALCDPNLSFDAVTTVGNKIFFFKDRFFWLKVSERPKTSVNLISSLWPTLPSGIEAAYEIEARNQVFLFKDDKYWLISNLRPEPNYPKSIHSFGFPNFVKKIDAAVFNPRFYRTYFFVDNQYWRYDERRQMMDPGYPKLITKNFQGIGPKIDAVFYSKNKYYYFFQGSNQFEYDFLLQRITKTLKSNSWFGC

[10] = target: T2, Matrix metalloproteinase-9; experiment: Inhibition of MMP9 (unknown origin) assessed as dissociation constant
Neutrophil collagenase = Neutrophil collagenase (Homo sapiens, UniProt P22894); experiment: Inhibition of MMP8 (unknown origin)
Sequence of Neutrophil collagenase (P22894 whole entry): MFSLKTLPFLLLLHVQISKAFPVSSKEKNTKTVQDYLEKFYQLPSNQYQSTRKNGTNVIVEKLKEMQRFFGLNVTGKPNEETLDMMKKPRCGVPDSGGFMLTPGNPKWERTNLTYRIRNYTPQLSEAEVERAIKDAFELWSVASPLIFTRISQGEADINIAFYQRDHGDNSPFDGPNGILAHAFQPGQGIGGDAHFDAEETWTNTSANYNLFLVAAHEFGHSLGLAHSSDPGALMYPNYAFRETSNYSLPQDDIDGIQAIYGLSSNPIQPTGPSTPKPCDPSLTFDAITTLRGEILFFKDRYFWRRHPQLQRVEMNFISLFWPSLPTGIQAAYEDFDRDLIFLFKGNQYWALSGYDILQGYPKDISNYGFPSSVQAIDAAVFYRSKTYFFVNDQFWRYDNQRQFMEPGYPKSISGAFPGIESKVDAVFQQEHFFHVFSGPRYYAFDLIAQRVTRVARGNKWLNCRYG

Matrilysin [11] = target: T3, Matrilysin; experiment: Inhibition of MMP7 (unknown origin)
[12] = target: Matrix metalloproteinase-14 (Homo sapiens, UniProt P50281); experiment: Inhibition of MMP14 (unknown origin)

`CN([C@H]1CN(C(N)=O)C[C@@H]1S)S(=O)(=O)c1ccc(Oc2ccccc2)cc1` was tested, and the IC50 [1] was 2.3 nM and the IC50 [2] was 1.3 nM.
`NCCCCCC(=O)N1C[C@H](NS(=O)(=O)c2ccc(Oc3ccccc3)cc2)[C@@H](S)C1` showed an IC50 [1] of 2.2 nM and an IC50 [2] of 2.3 nM.
`NCc1ccc(Oc2ccc(S(=O)(=O)CC3CS3)cc2)cc1` (centres undefined) gave an IC50 [3] of 85 nM.
`CS(=O)(=O)Nc1ccc(Oc2ccc(S(=O)(=O)CC3CS3)cc2)cc1` (centres undefined) was tested, and the IC50 [2] was 80 nM.
`CC(=O)NCc1ccc(Oc2ccc(S(=O)(=O)CC3CS3)cc2)cc1` (centres undefined) was tested, and the IC50 [3] was 234 nM.
In the case of `O=C(NO)C1(S(=O)(=O)c2ccc(-n3cc(-c4ccc(-c5ccncc5)cc4)nn3)cc2)CCOCC1`, the IC50 [3] is reported as 0.23 nM.
For `CN(C)c1ccc(-c2cn(-c3ccc(S(=O)(=O)NC(Cc4ccccc4)C(=O)NO)cc3)nn2)cc1` (centres undefined), the IC50 [3] was 0.22 nM, the IC50 [4] was 1 nM and the Ki (Matrilysin [5]) was 116000 nM.
`C[C@@H]1O[C@@H](O[C@H]2[C@H](O[C@H]3CC[C@@]4(C)C(CC[C@]5(C)C4CC=C4C6CC(C)(C)CC[C@]6(C(=O)O)CC[C@]45C)[C@]3(C)COC(=O)[C@]3(O)C[C@@H](O)[C@@H](O)[C@H](OC(=O)/C=C/c4ccc(O)c(O)c4)C3)OC[C@H](O)[C@@H]2O)[C@H](O)[C@H](O)[C@H]1O` (some centres undefined) showed an IC50 [3] of 6230 nM, an IC50 [4] of 7050 nM and an Activity (B16-BL6 [6]) of 43.5%. For the same compound, the Activity (B16-BL6 [7]) was 52.9% and the Activity (B16-BL6 [8]) was 75.2%.
Work on `CCc1ccc(-c2cc(-c3ccc(S(=O)(=O)N[C@H](C(=O)O)C(C)C)cc3)no2)s1` yielded an IC50 [3] of 0.065 nM, an IC50 [4] of 0.29 nM and an IC50 [9] of 0.566 nM.
`Cc1nc2ccccc2n(CC(=O)NN/C=C\c2cccc([N+](=O)[O-])c2)c1=O` was tested, and the IC50 [3] was 2010 nM.
`NS(=O)(=O)c1cc(C(=O)c2ccc3c(-c4ccccc4)c[nH]c3c2)ccc1Cl` showed an IC50 [3] of 53 nM.
`Cc1ccc(NCC(=O)[C@@H](Cc2ccccc2)NC(=O)Cn2c(=O)c(C)nc3ccccc32)cc1` was tested, and the IC50 [3] was 10500 nM.
Compound `COC(=O)Cc1ccc(Oc2ccc(S(=O)(=O)CC3CS3)cc2)cc1` (centres undefined) has a Ki [2] of 180 nM.
Compound `O=C(CCCSc1nc(=O)c2ccccc2[nH]1)Nc1nc2ccccc2[nH]1` has an IC50 [10] of 300 nM.
For `CC(C)c1noc([C@@H](NC(=O)[C@H](CC2CCCC2)[C@H](O)C(=O)NO)C(C)(C)C)n1`, the IC50 [4] was < 100 nM.
In the case of `NCc1nc(-c2ccc(Oc3ccc(S(=O)(=O)CC4CS4)cc3)cc2)no1` (centres undefined), the IC50 [3] is reported as 630 nM.
For `Cc1ccc(-c2cc(-c3ccc(S(=O)(=O)N[C@H](C(=O)O)C(C)C)cc3)no2)s1`, the IC50 [3] was 0.0449 nM, the IC50 [4] was 0.34 nM and the IC50 (Neutrophil collagenase) was 0.567 nM. The IC50 [9] was 0.368 nM.
`CCCCCC(=O)N1C[C@H](F)C[C@H]1C(=O)N(C)[C@H](C(=O)N[C@@H](CCNC(=O)c1ccccc1)C(=O)NO)C(C)CC` (stereo partly drawn) (Hexanoyl-[Pro(trans-4-F)]-[NMeIle(3ξ)]-[Dab](Bz)-{NHOH}) was tested, and the IC50 [3] was < 1 nM.
Compound `CC(C)=CCc1cc(/C=C/C(=O)O)cc(CC=C(C)C)c1O` [ARTEPILLIN] has an IC50 [3] of 3100 nM, an IC50 (Matrilysin [11]) of 320000 nM and an IC50 [12] of 350000 nM.
